Converted amounts (≈) assume the structure as drawn.
Columns and labels:
[1] = Rat serum pharmacokinetics after IV bolus administration; assay type: in vivo; details: in words
Description: Rat serum pharmacokinetics of compounds 1, 2, 3 and 4 was evaluated after IV bolus administration (FIG. 11). FIG. 11 depicts the serum concentrations as a function of time.

[2] = In vitro stability in rat serum and tissue homogenates (LC/MS/MS); assay type: in vitro ADME
Description: To test the stability of the compounds in vitro, samples were prepared and analyzed by LC/MS/MS according to the following procedure.
Homogenization: A chunk of fresh tissue was weighed and mixed with saline at 1:1 ratio (w/v) in a 12×75 mm polypropylene round bottom tube. The mixture was homogenized with a Polytron homogenizer (on ice, 3×10 seconds with 10 second intervals at the setting of 7).
Incubation and TCA-precipitation: An appropriate amount of a tissue homogenate was pre-warmed at 37° C. for 2 minutes in an Eppendorf tube. The compound to be tested was added to the tube to a final concentration of 2 μg/ml, mixed, and a 60 μl aliquot was immediately taken (as 0 hour sample) and mixed with 120 μl of 4% TCA (trichloroacetic acid) in an Eppendorf tube. The temperature of the tube containing the rest of the tissue sample was returned to 37° C. for incubation. Later, samples were taken as scheduled and mixed with TCA as described above. Plasma and lavage samples were directly incubated with the compounds without addition of saline and homogenization.
LC/MS/MS sample vial preparation: TCA-precipitated sample tubes were vortexed for 30 seconds, centrifuged in a microfuge at top speed (13.2 k rpm) for 5 minutes. The supernatant was collected. The pH was neutralized to about 3.5 with ammonium acetate buffer. The sample (45 μl) was transferred to a glass LC/MS/MS vial (Kimble, 11 mm, 1.5 ml) and 5 μl of an internal standard was added to a final concentration of 500 ng/ml. LC/MS/MS analysis was performed in Chemistry Department of San Diego State University.
LC/MS/MS protocol: Thermo-Finnigan TSQ Quantum triple sector mass spectrometer with electrospray (ESI) ionization was used to analyze the samples. The operation conditions were: Mobile phase of pH 3.00 water/formic acid: acetonitrile-methanol (45%:5%:50% by volume); Thermo-Keystone Betabasic C-18 column (2.1 mm×50 mm) operated at 0.100 mL/min.
Many proteases responsible for degrading EPI compounds are located in […]. Lysozymes typically have an acidic pH (about 4.8-5), whereas the pH in tissue homogenates that were prepared was higher (kidney, pH 6.8; liver, pH 6.6; and lung, pH 7.5). To test the effect of tissue homogenates closer to physiological conditions, the pH was lowered to about 6 by adding acetic acid to the tissue homogenates and compound stability was tested. FIG. 2 depicts the stability of compounds 1 and 3 at different pH. […] The pH-dependent degradation of compound 3 was especially evident in kidney homogenates.
FIG. 4 is a bar graph depicting the stability of compound 3 in the supernatant and pellet of kidney tissue homogenates.

[3] = Tissue levels in rat six-hour after 8.4 mg/kg IV bolus; assay type: in vivo; details: rat kidney, liver and lung; 8.4 mg/kg IV bolus; in words
Description: Tissue levels of compounds 1, 2, 3 and 4 were evaluated in kidney, liver and lung six-hour after 8.4 mg/kg IV bolus administration. FIG. 13 depicts the levels as a function of time.
Compound 67, which is the expected metabolite of proteolytic intracellular degradation of compound 3, was detected in rat tissues after IV infusion, confirming the tissue-specific degradation of compound 3 (Tables 9A, B).

[4] = tested on: P. aeruginosa, PAM1723, overexpressing the MexAB-OprM efflux pump; assay: Levofloxacin potentiation checkerboard assay (broth microdilution); assay type: cell-based
Description: Stock solution was stored at −80° C.
The checkerboard assay was performed in microtiter plates. […] EPIs were diluted in the y axis, each row containing an equal concentration of an EPI. The result of these manipulations was that each well of the microtiter plate contains a unique combination of concentrations of the two agents. The assay was performed in MHB with a final bacterial inoculum of 5×10^5 CFU/ml (from an early-log phase culture). Microtiter plates were incubated during 20 h at 35° C. and were read using a microtiterplate reader (Molecular Devices) at 650 nm as well as visual observation using a microtiter plate-reading mirror.

PAM 1020, wt = assay: Tigecycline potentiation checkerboard assay, PAM 1020; assay type: cell-based, P. aeruginosa; details: Pseudomonas aeruginosa, read-out: Tigecycline MIC in the presence of Compound 21
Description: (§1) The ability of compound 21 to increase susceptibility to tigecycline was also assessed. The tigecycline potentiating activity of compound 21 was assessed by the checkerboard assay (Antimicrobial Combinations, Antibiotics in Laboratory Medicine, ed. Victor Lorian, M.D., Fourth edition, 1996, pp 333-338, which is incorporated herein by reference in its entirety) using a broth micro-dilution method performed as recommended by the CSLI (Clinical and Laboratory Standards Institute, formerly NCCLS) guidelines (National Committee for Clinical Laboratory Standards 2003. Methods for Dilution Antimicrobial Susceptibility Tests for Bacteria That Grow Aerobically—Sixth Edition; Approved Standard. NCCLS Document M7-A6, Vol 20 No. 2). In this assay, multiple dilutions of the two drugs, compound 21 and tigecycline, were tested alone and in combination, at concentrations equal to, above and below their respective minimal inhibitory concentrations (MICs). […] The stock solution was further diluted in Mueller Hinton Broth (MHB). Stock solutions were stored at −80° C.
(§2) The checkerboard assay was performed in microtiter plates. Tigecycline was diluted in the x axis, each column containing a single concentration of tigecycline. Compound 21 was diluted in the y axis, each row containing an equal concentration of the EPI. […] The assay was performed in MHB with a final bacterial inoculum of 5×10^5 CFU/ml (from an early-log phase culture). The microtiter plates were incubated for 20 hours at 35° C. and then read using a microtiter plate reader (Molecular Devices) at 650 nm, as well as by visual observation using a microtiter plate-reading mirror.

[5] = tested on: Enterobacter aerogenes 19; assay: Antibiotic MIC with fixed concentration of compound 21, Enterobacter aerogenes 19; assay type: cell-based; details: tigecycline alone
Citrobacter freundii 13 = assay: Antibiotic MIC with fixed concentration of compound 21, Citrobacter freundii 13; assay type: cell-based; details: tigecycline alone
Description: (§3) To further characterize the clinical potential of tigecycline/EPI combinations, the microbiological activity of tigecycline in combination with compound 21 was investigated using clinical isolates of P. aeruginosa and other gram-negative bacteria. In several experiments, described below, the impact of a fixed concentration of compound 21 (2.5 μg/ml) on susceptibility to tigecycline was determined.
(§4) The impact of compound 21 on the activity of tigecycline against representative members of Enterobacteriacaea was also tested.

[6] = tested on: P. aeruginosa strain PAM 1032; assay: Mouse model of P. aeruginosa sepsis infection (tigecycline 50% effective dose); assay type: in vivo; details: mice, tigecycline SC at 0 and 2 hours; Reed and Meunch
Description: Tigecycline and compound 21 were prepared in sterile 0.9% saline. Seventy Swiss-Webster mice (Harlan laboratories) with body weights ranging from 22 to 25 grams at the start of the study were used. Upon receipt, the animals were housed 5 per cage in a room with a controlled environment and were acclimated to laboratory conditions for at least 24 hours prior to the start of dosing. Animals were provided food and water ad libitum. The health status of the animals was determined during the acclimation period and unhealthy animals were not placed on study. Each animal was identified by marking their tails with indelible ink and each cage was identified by animal, group, and study number.
P. aeruginosa strain PAM 1032 was grown in Mueller-Hinton Broth (MHB) at 35° C. under constant aeration. After 20 hours, the inoculum was sub-cultured into fresh MHB and allowed to regrow at 35° C., under constant aeration, for 4 hours. The inoculum was adjusted to ca. 4×10^7 CFU/ml by correlation of absorbance at 600 nm with predetermined plate counts. The inoculum was then diluted 2-fold in 14% hog-gastric mucin (Sigma, St. Louis, Mo.) for a final inoculum concentration of 2×10^7 CFU/ml. […] At 0 and 2 hours following infection, tigecycline was administered by the subcutaneous route and compound 21 was administered by the intraperitoneal route. […] The susceptibility of the test strain (P. aeruginosa PAM1032, […] MexAB-OprM) to tigecycline was 4 ug/ml, the susceptibility of the test strain to tigecycline in the presence of 2.5 μg/mL of compound 21 was 0.25 μg/mL.

Klebsiella pneumonia 79 = assay: Antibiotic MIC with fixed concentration of compound 21, Klebsiella pneumonia 79; assay type: cell-based; details: tigecycline alone
Description: as §3, §4

[7] = tested on: PAM 1032, nalB, MexAB-OprM over-expressed; assay: microbe, parasite or virus in culture; assay type: cell-based, P. aeruginosa
Description: as §1, §2
P. aeruginosa strain PAM 1032 was grown in Mueller-Hinton Broth (MHB) at 35° C. under constant aeration. After 20 hours, the inoculum was sub-cultured into fresh MHB and allowed to regrow at 35° C., under constant aeration, for 4 hours. The inoculum was adjusted to ca. 4×10^7 CFU/ml by correlation of absorbance at 600 nm with predetermined plate counts. The inoculum was then diluted 2-fold in 14% hog-gastric mucin (Sigma, St. Louis, Mo.) for a final inoculum concentration of 2×10^7 CFU/ml. […] At 0 and 2 hours following infection, tigecycline was administered by the subcutaneous route and compound 21 was administered by the intraperitoneal route.

[8] = tested on: PAM 1753, MexEF-OprN over-expressed; assay: Tigecycline potentiation checkerboard assay, PAM 1753; assay type: cell-based, P. aeruginosa; details: Pseudomonas aeruginosa, read-out: Tigecycline MIC in the presence of Compound 21
Description: as §1, §2

Enterobacter cloacae 25 = assay: Antibiotic MIC with fixed concentration of compound 21, Enterobacter cloacae 25; assay type: cell-based; details: tigecycline alone
[9] = tested on: Strain S41, a clinical isolate; assay: microbe, parasite or virus in culture; assay type: cell-based, P. aeruginosa
[10] = tested on: laboratory strains of P. aeruginosa; assay: Tigecycline susceptibility of laboratory strains of P. aeruginosa over-expressing or lacking efflux pumps; assay type: cell-based; details: compared to the wild-type strain PAM1020
Description: as §1, §2

[11] = tested on: PAM 1738, MexCD-OprJ over-expressed, ΔMexAB-OprM ΔMexEF-OprN; assay: microbe, parasite or virus in culture; assay type: cell-based, P. aeruginosa; details: Pseudomonas aeruginosa, read-out: Tigecycline MIC in the presence of Compound 21
Description: as §1, §2

[12] = tested on: PAM 1323, mexZ, MexXY-OprM over-expressed, MexAB-OprM low level; assay: microbe, parasite or virus in culture; assay type: cell-based, P. aeruginosa; details: Pseudomonas aeruginosa, read-out: Tigecycline MIC in the presence of Compound 21
Description: as §1, §2

[13] = tested on: PAM 2466, mexR1, MexAB-OprM and MexXY-OprM over-expressed; assay: microbe, parasite or virus in culture; assay type: cell-based, P. aeruginosa; details: Pseudomonas aeruginosa, read-out: Tigecycline MIC in the presence of Compound 21
Description: as §1, §2

[14] = tested on: PAM 1723, MexAB-OprM over-expressed, ΔMexCD-OprJ ΔMexEF-OprN; assay: microbe, parasite or virus in culture; assay type: cell-based, P. aeruginosa; details: Pseudomonas aeruginosa, read-out: Tigecycline MIC in the presence of Compound 21
Description: as §1, §2

[15] = tested on: 110 clinical isolates of P. aeruginosa; assay: Tigecycline susceptibility of P. aeruginosa clinical isolates with fixed concentration of compound 21; assay type: cell-based; details: tigecycline alone; 110 clinical isolates
Description: as §3
Results from an experiment using 110 clinical isolates of P. aeruginosa are presented in FIG. 1, as the distribution of tigecycline MICs with or without the EPI potentiator.

Klebsiella pneumonia = details: cited from earlier work
Klebsiella pneumonia 73 = assay: Antibiotic MIC with fixed concentration of compound 21, Klebsiella pneumonia 73; assay type: cell-based; details: tigecycline alone
Description: as §3, §4

[16] = tested on: PAM 1626, Four pumps non-functional; assay: Tigecycline potentiation checkerboard assay, PAM 1626; assay type: cell-based, P. aeruginosa; details: Pseudomonas aeruginosa, read-out: Tigecycline MIC in the presence of Compound 21
Description: as §1, §2

NCCC[C@H](N)C(=O)N[C@@H](CCc1ccccc1)C(=O)Nc1cnc2ccccc2c1 [Compound 2, 2-(S),5-Diamino-pentanoic acid [3-phenyl-1-(S)-(quinolin-3-ylcarbamoyl)-propyl]-amide]
serum levels after IV bolus administration [1]: decreased more rapidly
stability in rat serum ([2]; in words): intermediately stable
compound left in serum after 1.5 hr of incubation ([2]; rat serum): about half
compound left in serum after 4 hr ([2]; rat serum): almost all gone
compound left in kidney and liver after the first 40 minutes of incubation ([2]; rat tissue homogenates): Hardly any was left
stability in kidney and liver ([2]; rat tissue homogenates, in words): very unstable
tissue levels at 6 hours after IV injection [3]: below the detectable level
Antibiotic (levofloxacin) MIC in the presence of EPI ([4]; EPI 0 μg/ml (levofloxacin alone)): 2 µg/mL
Antibiotic (levofloxacin) MIC in the presence of EPI ([4]; EPI 1.25 μg/ml): 2 µg/mL
Antibiotic (levofloxacin) MIC in the presence of EPI ([4]; EPI 5 μg/ml): 2 µg/mL
Antibiotic (levofloxacin) MIC in the presence of EPI ([4]; EPI 10 μg/ml): 1 µg/mL
Antibiotic (levofloxacin) MIC in the presence of EPI ([4]; EPI 20 μg/ml): 0.125 µg/mL
Antibiotic (levofloxacin) MIC in the presence of EPI ([4]; EPI 40 μg/ml): 0.06 µg/mL
Antibiotic (levofloxacin) MIC in the presence of EPI ([4]; EPI 80 μg/ml): 0.03 µg/mL
Antibiotic (levofloxacin) MIC in the presence of EPI ([4]; EPI […]): 2 µg/mL
MPC8 ([4]; EPI concentration necessary to increase susceptibility to levofloxacin eight-fold): 20 µg/mL

CN(C)c1cc(NC(=O)CNC(C)(C)C)c(O)c2c1C[C@H]1C[C@H]3[C@H](N(C)C)C(O)=C(C(N)=O)C(=O)[C@@]3(O)C(O)=C1C2=O [Tigecycline]
MIC (PAM 1020, wt): 0.002 µg/mL
Tig (MIC) [5]: 4 µg/mL
Tig (MIC) (Citrobacter freundii 13): 4 µg/mL
50% effective dose of tigecycline alone [6]: greater than 200 mg/kg
Tig (MIC) (Klebsiella pneumonia 79): 4 µg/mL
susceptibility of the test strain to tigecycline ([7]; PAM1032, tigecycline alone): 4 µg/mL
MIC ([7]; Pseudomonas aeruginosa, read-out: Tigecycline MIC in the presence of Compound 21): 0.004 µg/mL
MIC [8]: 0.002 µg/mL
Tig (MIC) (Enterobacter cloacae 25): 2 µg/mL
MIC ([9]; Pseudomonas aeruginosa, read-out: Tigecycline MIC, alone): 1 µg/mL (≈ 1.71 µM)
Mutation Frequency on Tigecycline at 4 μg/ml, alone ([9]; strain S41, 4× MIC): 8.3 × 10^−8
increase in susceptibility to tigecycline on deleting all four efflux pumps (PAM1626) [10]: 4 fold
MIC [11]: 0.001 µg/mL
MIC [12]: 0.004 µg/mL
MIC [13]: 0.008 µg/mL
MIC [14]: 0.004 µg/mL
MIC50, Tigecycline [15]: 2 µg/mL
MIC90, Tigecycline [15]: 8 µg/mL
frequency of emergence of efflux-mediated tigecycline resistance (Klebsiella pneumonia): ~4×10^−8
Tig (MIC) (Klebsiella pneumonia 73): 2 µg/mL
MIC [16]: 0.0005 µg/mL
